In assay [1] the test system is neural progenitor cell (NPCs). The experiment in a line: Neurosphere counts in 96-well plates. The settings on record: cells grown for 2 days. The format is cell-based, mouse. On the procedure:
Generation of neural progenitor cell (NPCs) libraries:
dissociation of E14 mouse neocortex
E14 pup brains were harvested and placed in ice cold DPBS(1X)+10% Pen/Strep, then they were dissected using a dissecting microscope. From each pup, one brain hemisphere was placed in 2 ml of Neurobasal media/10% P/S/10X Hepes and another brain hemisphere was placed in another tube.
The tissue from each tube was aseptically and manually dissociate into single cells, neurobasal complete medium was added and centrifuged at 130G for 5 min. The tissue was then re-suspended in neurobasal complete media with GF and placed in a corning suspension culture dish 100 mm×20 mm (#430591). Cells were passage twice using a 1:3 ratio, after what they were centrifuged (130 g 5 min), resuspended in freezing media (10% DMSO and neurobasal complete media, no GF) and frozen in liquid nitrogen (LN2).
Corning Costar 3474, 96 well plate, Ultra low attachment
3-4 mLs of cells were taken out of the tilted plate and add to a 15 ml conical. Some of the remaining media was used to rinse down the plate. All remaining media was drawn up and put into a 15 ml conical tube, and Spun at 130 G for 5 min. All media was removed. The cells were gently resuspended in 5 mls of warm PBS, spun again. PBS was then removed and the cells were then gently resuspended in 500 μl of Accutase(Corning™ Accutase™ Cell Detachment Solution, #25058Cl). The cells were then Pipetted gently with a 1000 μl tip to break up pellet, and then they were placed in a shaking water bath for 5-10 minutes, after which time they were swirled by hand frequently.
Control and compound media was made with #2 media and contain 29 uM Choline, low (5 uM) and medium (70 uM) choline media was made with #3 media.
Clumps were no bigger than ˜3-5 cells. 5-10 mls of warm media (GF) was added to dilute enzyme. 2 mls of media was added. […]
in AB staining solution for five min. Imaging was carried out using a GE Cytell imager or LSM 710, Zeiss confocal microscope and the diameters of neurospheres with ImageJ software (National Institutes of Health) was analysed.

Assay [2] concerns neural progenitor cell (NPCs). Briefly: Monolayer culture NPC proliferation assay. The format is cell-based, mouse. Conditions: 3 days culture. How it is done: 24 well glass bottom plates (Mat Tek P24G-1.0-13-F Case, glass bottom 24 well plates) were coated with poly-L-ornithin (Sigma P4957) and Fibronection (Sigma F1141) before use in the assay below.
Cells were plated (10,000 cells per well) in Complete media with GF for 24 hours (500 ul per well). Once cells had been attached they were switched to choline deficient media, other compound media, or appropriate media.
After 24 h, it was ensured that cells had attached to the plate then the medium was carefully removed. 500 μL of compound media plus GF.was added. The cells were cultured for 3 days in appropriate media.
Control and compound media was made with #2 media and contains 29 uM Choline, Low (5 uM) and medium (70 uM) choline media was made with #3 media.
EDU incorporation was measured using Click-iT® EdU Alexa Fluor® 555 Imaging Kit (Life technologies, #c10338).
At the end of day 3 EdU was added to each well at 10 μM for 30 minutes prior to fixation. For fixation and subsequent immunohistochemical analysis, the medium was removed, the cells were rinsed once with 1X PBS for 5 min, and fixed with 4% PFA in 1X PBS for 15 min at 4° C., then the cells were washed twice with 1X PBS for 5 min, left in 1X PBS, wrapped in foil and leave overnight at 4° C., or staining was proceeded with.
PBS was removed and enough AB staining solution (1% Goat
serum, 1xPBS, and 0.1% triton X) added to cover the bottom, the blockwas kept at room temp for 1 hour. The cells were stained for EDU. The cells were Incubated for 30 min at room temp, in the dark. The cells were washed with 1X PBS and stained with Dapi 1:5000 ul for 15 min. The cells were washed once with 1X PBS, then left in PBS at 4° C., or Imaged immediately using a GE Cytell imager (cell viability
application), or LSM 710, Zeiss confocal microscope (with ImageJ software (National Institutes of Health) analysis).

In assay [3] the test system is brain myelination (myelin water fraction). The experiment in a line: Cross-sectional correlation of infant formula nutrient content with brain myelination (mcDESPOT MRI myelin water fraction). The settings on record: formula-fed children up to 5 years of age; brain regions named per nutrient. The format is in vivo, human. How it is done: MRI (Magnetic Resonance Imaging): MRI brain scans of infants and children between 0 and 5 years were acquired using a white matter imaging technique. This technique provides a quantitative measure, the Myelin Water Fraction (MWF), which is a surrogate marker of myelin content in the brain. When mapped as a function of time across early childhood, myelination trajectories can be generated.
Infant formula composition: six infant formulas fed to infants participating in a study were analyzed for their composition/level of myelin-relevant nutrients.
Infants included in this study were drawn from a larger longitudinal study of normal brain and behavioral development: the Brown University Assessment of Myelination and Behavior Across Maturation (BAMBAM). To focus on neurotypical development, children with known potential risk factors for learning, neurologic, or psychiatric disorders were specifically excluded during recruitment and enrollment. Thus, children with in utero alcohol or illicit substance exposure, premature (<37 weeks gestation) or multiple birth, fetal ultrasound abnormalities, complicated pregnancy (e.g., preeclampsia), APGAR scores <8, NICU admission, neurological disorder (e.g., head injury, epilepsy), psychiatric or developmental disorders in the infant, parents or siblings (including maternal depression requiring medication) were excluded. Ongoing screenings, such as the MCAT for autism, or CBCL for behavioral problems, were further used to remove enrolled children with clinically concerning behaviors or overt medical conditions (such as autism spectrum disorders).
A combination of retrospective and prospective data were acquired from parents via detailed medical histories and parental interview on the type of infant formula used, percentage of breastfeeding to formula feeding, and length of exclusive breastfeeding. This information was updated at each study visit, which occurred approximately every 6 months for children under 2 years, and yearly for older children. Using this information, children were categorized into one of 2 groups: #1. Exclusively formula-fed; and #2. Exclusively breastfed for at least 90 days (3 months). Children who were fed a combination of breastmilk and formula within 3 months were excluded from our analysis. Infants within the exclusively formula-fed group were further sub-divided based on parental reports of the main infant formula used throughout the first 3 months. Main formula was defined as that given 90% of the time or more (in the case were parents used an alternate brand during vacation, for example).
Using these criteria, 94 exclusively formula-fed infants and young children were selected into group #1. These included 13 children who received formula #2; 28 who received formula #5; 8 who received formula #3; 39 who received formula #4; 5 who received formula #1 and 1 who received formula #6. A sample of 52 exclusively breast-fed infants were also selected and matched to the over formula-fed group with regards to mean age, gestation duration, birth weight, male:female ratio, ethnicity ratio, maternal education, family size, and number of languages spoken in the home (in addition to English).
Each infant was scanned using the mcDESPOT (multicomponent Driven Equilibrium Single Pulse Observation of T1 and T2) white matter imaging technique Deoni et al. (Magn. Reson. Med. 2008, 60:1372-1387), which provides a quantitative measure of the myelin water fraction (MWF)—a measure of myelin content—at each point throughout the brain. All infants were scanned during natural (i.e. non-sedated) sleep using acoustically-muffled mcDESPOT imaging protocols. Total imaging times ranged from 19 minutes for the youngest toddlers to 24 minutes for the older 4 year-old children.

For Sphingomyelin, the “number of neurospheres, Average (Mean)” value in assay [1] (Sphingomyelin High (Dose 3, 1 μm)) came to 219; in assay [1] (Sphingomyelin Low (Dose 1, 10 nM)), 94; in assay [1] (Sphingomyelin Med (Dose 2, 100 nM)) it was 121. The “neuronal proliferation, DAPI” value in assay [2] (Sphingomyelin high (Dose 3, 1 μm)) is listed as 305; in assay [2] (Sphingomyelin low (Dose 1, 10 nM)), 280; in assay [2] (Sphingomyelin med (Dose 2, 100 nM)), 314. For the same substance, the “association of nutrient content of infant formula with myelination (myelin water fraction) over time in the brain” value in assay [3] is on record as “an association with myelination (myelin water fraction) was observed”.

(Values after patent publication US11191293B2, “Nutritional composition and infant formula for promoting myelination of the brain” (NESTEC S.A., priority 2015, dated 2021).)
